Here are results for 5 compounds from patent US8846636B2, “Nucleoside analogues with quaternary carbon stereogenic centers and methods of use” (LCB Pharma Inc., priority 2008, dated 2014).

What all share (type): cell-based
One test deals with 1A6. In words: MTT cell proliferation assay, 1A6. The following applies: 1A6 cell line (urinary bladder). As to the method: (§1) The antiviral and antitumor activities of the compounds of the invention were evaluated by a cellular proliferation assay. The MTT [3-(4,5-dimethylthiazol-2-yl)-2,5-diphenyltetrazolium bromide] assay, first described by Mosmann (Mosmann T., “Rapid colorimetric assay for cellular growth and survival: application to proliferation and cytotoxicity assays,” J. Immunol. Methods 1983 Dec. 16; 65(1-2):55-63, and incorporated by reference in its entirety) is based on the ability of a mitochondrial dehydrogenase enzyme from viable cells to cleave the tetrazolium rings of the pale yellow MTT. The cleavage reaction form a dark blue formazan crystals which is largely impermeable to cell membranes and accumulation within healthy cells. Solubilisation of the cells by the addition of a detergent liberates and solubilizes the crystals. The number of surviving cells is directly proportional to the level of the formazan product created. The color can then be quantified using a simple colorimetric assay. The results can be read on a multiwell scanning spectrophotometer (ELISA reader).
(§2) In Tables 1 and 2, IC50 values are presented for various cell lines in micromolar units (μm), “Gemci” is Gemcitabine, and “5-FU” is 5-fluorouracil.

Another test concerns 22Rv1. The test is described as follows: MTT cell proliferation assay, 22Rv1. The following applies: 22Rv1 cell line (prostate). How it is done: as §1, §2
The next test relates to 786-O. The test is described as follows: MTT cell proliferation assay, 786-O. The following applies: 786-O cell line (kidney). As to the method: as §1, §2
(In general: Tetrazolium dyes change colour on reduction, which living cells bring about.)

The next test has as its system BxPC-3. The test is described as follows: MTT cell proliferation assay, BxPC-3. The settings on record: BxPC-3 cell line (pancreas). How it is done: as §1, §2
A further test has as its system Colo 829. In words: MTT cell proliferation assay, Colo 829. The settings on record: Colo 829 cell line (skin). How it is done:
as §1, §2

A further test concerns DLD-1. The test is described as follows: MTT cell proliferation assay, DLD-1. The settings on record: DLD-1 cell line (colon). As to the method: as §1, §2
The test system of a further test is HCC1143. The test is described as follows: MTT cell proliferation assay, HCC1143. The following applies: HCC1143 cell line (mammary gland; breast). As to the method: as §1, §2
Another test concerns HCT 116. The test is described as follows: MTT cell proliferation assay, HCT 116. The settings on record: HCT 116 cell line (colon). How it is done:
as §1, §2

A further test concerns HL-60. The test is described as follows: MTT cell proliferation assay, HL-60. The following applies: HL-60 cell line (acute promyelocytic leukemia). How it is done: as §1, §2
Another test relates to MCF7. In words: MTT cell proliferation assay, MCF7. The following applies: MCF7 cell line (mammary gland; breast). How it is done:
as §1, §2

The test system of the next test is MOLT-4. The test is described as follows: MTT cell proliferation assay, MOLT-4. As to the method: as §1, §2
Another test has as its system NCI H1395. In words: MTT cell proliferation assay, NCI H1395. How it is done: as §1, §2
In another test the test system is NCI H2052. The test is described as follows: MTT cell proliferation assay, NCI H2052. The settings on record: NCI H2052 cell line (tumor stage 4 derived from pleural effusion). As to the method: as §1, §2
The next test relates to OVCAR3. The test is described as follows: MTT cell proliferation assay, OVCAR3. The settings on record: OVCAR3 cell line (ovary). As to the method: as §1, §2
For the next test, the system named is PFSK-1. The test is described as follows: MTT cell proliferation assay, PFSK-1. The following applies: PFSK-1 cell line (brain). As to the method: as §1, §2
The next test has as its system ZR-75-1. In words: MTT cell proliferation assay, ZR-75-1. The settings on record: ZR-75-1 cell line (mammary gland; breast). How it is done: as §1, §2
[1] abbreviates: Homo sapiens, MOLT-4, MOLT-4 cell line (acute lymphoblastic leukemia).
Where [2] appears, read: Homo sapiens, NCI-H1395, NCI H1395 cell line (lung).

Bounds are passed on as bounds.

As a reminder, the IC50 is the concentration that inhibits the measured activity by half. Read a low IC50 as greater potency.

Consider `C[C@@]1(CO)[C@@H](CO)O[C@@H](n2cc(F)c(N)nc2=O)[C@@H]1O` [LCB-1096, 4-amino-5-fluoro-1-((2R,3R,4S,5S)-3-hydroxy-4,5-bis(hydroxymethyl)-4-methyltetrahydrofuran-2-yl)pyrimidin-2(1H)-one], for which the 50% inhibitory concentration (IC50) is more than 500 µM in the test on 1A6; more than 500 µM with 22Rv1 (Homo sapiens); more than 500 µM in the test on 786-O (Homo sapiens, 786-0); more than 500 µM in the test with BxPC-3 (Homo sapiens); more than 500 µM in the test with Colo 829 (Homo sapiens); more than 500 µM in the test with DLD-1 (Homo sapiens). In addition, the IC50 with HCC1143 (Homo sapiens), in the test with HCT 116 (Homo sapiens), in the test with HL-60 (Homo sapiens), in the test with MCF7 (Homo sapiens), in the test with MOLT-4 (setting [1]) and in the test on NCI H1395 (setting [2]) was more than 500 µM in each case. Further, the half-inhibitory concentration (IC50) in the test with NCI H2052 (Homo sapiens) is more than 500 µM; with OVCAR3 (Homo sapiens, OVCAR-3), more than 500 µM; in the test on PFSK-1 (Homo sapiens), more than 500 µM; in the test with ZR-75-1 (Homo sapiens), more than 500 µM.
In the case of `C[C@@]1(CO)[C@@H](CO)O[C@@H](n2ccc(N)nc2=O)[C@@H]1O` [LCB-1095, 4-amino-1-((2R,3R,4S,5S)-3-hydroxy-4,5-bis(hydroxymethyl)-4-methyltetrahydrofuran-2-yl)pyrimidin-2(1H)-one], the concentration for half-maximal inhibition (IC50) was more than 500 µM in the test on 1A6; more than 500 µM with 22Rv1 (Homo sapiens); more than 500 µM in the test on 786-O (Homo sapiens, 786-0); more than 500 µM with BxPC-3 (Homo sapiens); 460 µM in the test with Colo 829 (Homo sapiens); more than 500 µM in the test on DLD-1 (Homo sapiens). Moreover, the concentration for half-maximal inhibition (IC50) in the test with HCC1143 (Homo sapiens) is more than 500 µM; with HCT 116 (Homo sapiens) it was more than 500 µM; in the test on HL-60 (Homo sapiens) it was more than 500 µM; with MCF7 (Homo sapiens), 430 µM; in the test on MOLT-4 (setting [1]), more than 500 µM; in the test on NCI H1395 (setting [2]) it was more than 500 µM. The IC50 in the test on NCI H2052 (Homo sapiens) is more than 500 µM; in the test with OVCAR3 (Homo sapiens, OVCAR-3), more than 500 µM; in the test with PFSK-1 (Homo sapiens), more than 500 µM; in the test on ZR-75-1 (Homo sapiens), more than 500 µM.
Consider `CC1(CO)C(O)[C@H](n2cnc3c(=O)nc(N)[nH]c(=O)c32)O[C@@H]1CO` (stereo in doubt) [LCB-1097, 6-amino-1-((2R,3R,4S,5S)-3-hydroxy-4,5-bis(hydroxymethyl)-4-methyltetrahydrofuran-2-yl)imidazo[4,5-e][1,3]diazepine-4,8(1H,5H)-dione], for which the concentration for half-maximal inhibition (IC50) with 1A6 was more than 500 µM; in the test on 22Rv1 (Homo sapiens) it was more than 500 µM; in the test on 786-O (Homo sapiens, 786-0), more than 500 µM; in the test on BxPC-3 (Homo sapiens), more than 500 µM; in the test with Colo 829 (Homo sapiens), more than 500 µM; with DLD-1 (Homo sapiens), more than 500 µM. For the same compound, the IC50 with HCC1143 (Homo sapiens), in the test on HCT 116 (Homo sapiens), with HL-60 (Homo sapiens), with MCF7 (Homo sapiens), in the test on MOLT-4 (setting [1]) and with NCI H1395 (setting [2]) was more than 500 µM in each case. In addition, the IC50 with NCI H2052 (Homo sapiens) is more than 500 µM; with OVCAR3 (Homo sapiens, OVCAR-3), more than 500 µM; in the test on PFSK-1 (Homo sapiens), more than 500 µM; in the test with ZR-75-1 (Homo sapiens) it was 210 µM.
As for “((2S,3S,4R,5R)-5-(2-amino-6-chloro-9H-purin-9-yl)-4-hydroxy-3-methyltetrahydrofuran-2,3-diyl)dimethanol (A), ((2S,3S,4R,5R)-5-(6-amino-2-chloro-9H-purin-9-yl)-4-hydroxy-3-methyltetrahydrofuran-2,3-diyl)dimethanol (B) [LCB-1094]”, the IC50 in the test with 1A6, in the test with 22Rv1, in the test on 786-O, with BxPC-3, in the test on Colo 829 and in the test on DLD-1 was more than 500 µM in each case. Moreover, the IC50 with HCC1143, with HCT 116, in the test on HL-60, in the test on MCF7, with MOLT-4 (MOLT-4 cell line (acute lymphoblastic leukemia)) and with NCI H1395 (NCI H1395 cell line (lung)) was more than 500 µM each time. The concentration for half-maximal inhibition (IC50) in the test with NCI H2052, in the test on OVCAR3, with PFSK-1 and in the test with ZR-75-1 was more than 500 µM each time.
In the case of `Nc1ccn([C@@H]2O[C@H](CO)[C@@H](O)C2(F)F)c(=O)n1` [Gemci., Gemcitabine, reference compound], the 50% inhibitory concentration (IC50) is 5 µM with 1A6; more than 500 µM in the test with 22Rv1 (Homo sapiens); more than 500 µM with 786-O (Homo sapiens, 786-0); less than 0.5 µM in the test with BxPC-3 (Homo sapiens); less than 0.5 µM in the test on Colo 829 (Homo sapiens); more than 500 µM with DLD-1 (Homo sapiens). For the same compound, the IC50 with HCC1143 (Homo sapiens) is 400 µM; with HCT 116 (Homo sapiens), less than 0.5 µM; in the test with HL-60 (Homo sapiens) it was less than 0.5 µM; with MCF7 (Homo sapiens), more than 500 µM; with MOLT-4 (setting [1]), less than 0.5 µM; in the test on NCI H1395 (setting [2]), less than 0.5 µM. The IC50 is more than 500 µM with NCI H2052 (Homo sapiens); 5 µM with OVCAR3 (Homo sapiens, OVCAR-3); more than 500 µM in the test on PFSK-1 (Homo sapiens); more than 500 µM in the test on ZR-75-1 (Homo sapiens).
